Results reported in article PMC6199744, “Development of Chemical Proteomics for the Folateome and Analysis of the Kinetoplastid Folateome” (ACS Infectious Diseases, 2018).
Where two headings read alike, the source gives them in different places.

Key:
[1] = system: haloacid dehalogenase-like hydrolase (LmjF.28.1370); assay: Multitargeted bead mixture competition; format: binding, Leishmania; conditions: for fold change: protein LMJF.28.1370 HALOACID DEHALOGENASE-LIKE HYDROLASE, PUTATIVE, vehicle control = 1
[2] = target: T1, HeLa cell extract proteins (Homo sapiens, UniProt P27348); format: binding
T1 construct: endogenous in cells; host or cells: HeLa cell extract
T1 sequence (P27348 1-245): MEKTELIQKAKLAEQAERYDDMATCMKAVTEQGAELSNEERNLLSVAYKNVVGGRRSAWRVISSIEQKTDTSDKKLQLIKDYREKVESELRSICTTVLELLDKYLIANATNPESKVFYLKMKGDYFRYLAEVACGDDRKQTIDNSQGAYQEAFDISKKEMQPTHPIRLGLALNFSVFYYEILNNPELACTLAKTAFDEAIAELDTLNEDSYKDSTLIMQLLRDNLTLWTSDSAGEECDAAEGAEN

[3] = target: T2, HeLa cell extract proteins (Homo sapiens, UniProt O94822); format: binding
T2 construct: endogenous in cells; host or cells: HeLa cell extract
T2 sequence (O94822 whole entry): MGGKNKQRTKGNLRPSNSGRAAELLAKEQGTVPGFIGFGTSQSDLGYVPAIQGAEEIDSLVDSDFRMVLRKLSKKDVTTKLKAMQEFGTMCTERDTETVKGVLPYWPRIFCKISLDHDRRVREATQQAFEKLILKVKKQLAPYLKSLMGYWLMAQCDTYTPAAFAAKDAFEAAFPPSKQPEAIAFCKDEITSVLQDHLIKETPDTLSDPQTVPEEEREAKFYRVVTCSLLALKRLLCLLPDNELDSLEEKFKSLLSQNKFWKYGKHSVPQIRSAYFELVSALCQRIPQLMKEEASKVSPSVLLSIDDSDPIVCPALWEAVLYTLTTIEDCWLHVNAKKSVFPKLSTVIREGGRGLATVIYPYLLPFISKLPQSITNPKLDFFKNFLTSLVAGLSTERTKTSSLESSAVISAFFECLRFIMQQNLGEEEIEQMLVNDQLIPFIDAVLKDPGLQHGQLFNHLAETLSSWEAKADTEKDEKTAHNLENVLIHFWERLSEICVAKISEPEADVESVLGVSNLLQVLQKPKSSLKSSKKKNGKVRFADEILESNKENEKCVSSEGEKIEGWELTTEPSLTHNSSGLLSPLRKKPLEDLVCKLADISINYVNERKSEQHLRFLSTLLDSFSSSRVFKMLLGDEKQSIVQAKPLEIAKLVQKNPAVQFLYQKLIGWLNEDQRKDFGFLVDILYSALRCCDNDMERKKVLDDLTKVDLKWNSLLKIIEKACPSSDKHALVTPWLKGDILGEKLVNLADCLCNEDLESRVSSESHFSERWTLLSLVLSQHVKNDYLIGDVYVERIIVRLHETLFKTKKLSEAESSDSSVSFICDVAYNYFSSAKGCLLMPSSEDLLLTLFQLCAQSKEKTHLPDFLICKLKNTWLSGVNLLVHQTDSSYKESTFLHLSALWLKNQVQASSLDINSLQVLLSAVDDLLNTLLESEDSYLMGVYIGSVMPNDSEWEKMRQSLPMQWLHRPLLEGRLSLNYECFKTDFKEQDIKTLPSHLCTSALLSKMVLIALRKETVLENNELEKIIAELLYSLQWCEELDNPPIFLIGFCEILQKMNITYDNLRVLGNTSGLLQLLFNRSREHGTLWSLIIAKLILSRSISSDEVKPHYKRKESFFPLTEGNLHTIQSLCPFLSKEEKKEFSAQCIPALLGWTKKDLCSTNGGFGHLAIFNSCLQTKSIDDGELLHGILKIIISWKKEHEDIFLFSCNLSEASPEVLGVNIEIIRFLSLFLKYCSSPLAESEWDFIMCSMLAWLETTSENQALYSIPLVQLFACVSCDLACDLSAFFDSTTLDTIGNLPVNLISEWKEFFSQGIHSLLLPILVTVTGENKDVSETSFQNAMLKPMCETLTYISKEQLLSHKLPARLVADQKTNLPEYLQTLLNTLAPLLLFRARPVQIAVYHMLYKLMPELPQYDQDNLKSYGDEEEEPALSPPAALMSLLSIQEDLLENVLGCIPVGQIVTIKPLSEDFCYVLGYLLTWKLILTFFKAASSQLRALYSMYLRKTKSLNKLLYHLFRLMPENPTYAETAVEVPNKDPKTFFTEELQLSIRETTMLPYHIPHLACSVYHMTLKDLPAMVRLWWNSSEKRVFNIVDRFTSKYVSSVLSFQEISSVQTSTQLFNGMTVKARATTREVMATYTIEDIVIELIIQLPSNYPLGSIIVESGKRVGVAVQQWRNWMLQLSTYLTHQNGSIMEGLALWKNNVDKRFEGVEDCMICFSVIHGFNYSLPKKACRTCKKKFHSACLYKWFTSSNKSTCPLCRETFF

[4] = target: T3, HeLa cell extract proteins (Homo sapiens, UniProt Q9HAV4); format: binding
T3 construct: endogenous in cells; host or cells: HeLa cell extract
T3 sequence (Q9HAV4 1-1204): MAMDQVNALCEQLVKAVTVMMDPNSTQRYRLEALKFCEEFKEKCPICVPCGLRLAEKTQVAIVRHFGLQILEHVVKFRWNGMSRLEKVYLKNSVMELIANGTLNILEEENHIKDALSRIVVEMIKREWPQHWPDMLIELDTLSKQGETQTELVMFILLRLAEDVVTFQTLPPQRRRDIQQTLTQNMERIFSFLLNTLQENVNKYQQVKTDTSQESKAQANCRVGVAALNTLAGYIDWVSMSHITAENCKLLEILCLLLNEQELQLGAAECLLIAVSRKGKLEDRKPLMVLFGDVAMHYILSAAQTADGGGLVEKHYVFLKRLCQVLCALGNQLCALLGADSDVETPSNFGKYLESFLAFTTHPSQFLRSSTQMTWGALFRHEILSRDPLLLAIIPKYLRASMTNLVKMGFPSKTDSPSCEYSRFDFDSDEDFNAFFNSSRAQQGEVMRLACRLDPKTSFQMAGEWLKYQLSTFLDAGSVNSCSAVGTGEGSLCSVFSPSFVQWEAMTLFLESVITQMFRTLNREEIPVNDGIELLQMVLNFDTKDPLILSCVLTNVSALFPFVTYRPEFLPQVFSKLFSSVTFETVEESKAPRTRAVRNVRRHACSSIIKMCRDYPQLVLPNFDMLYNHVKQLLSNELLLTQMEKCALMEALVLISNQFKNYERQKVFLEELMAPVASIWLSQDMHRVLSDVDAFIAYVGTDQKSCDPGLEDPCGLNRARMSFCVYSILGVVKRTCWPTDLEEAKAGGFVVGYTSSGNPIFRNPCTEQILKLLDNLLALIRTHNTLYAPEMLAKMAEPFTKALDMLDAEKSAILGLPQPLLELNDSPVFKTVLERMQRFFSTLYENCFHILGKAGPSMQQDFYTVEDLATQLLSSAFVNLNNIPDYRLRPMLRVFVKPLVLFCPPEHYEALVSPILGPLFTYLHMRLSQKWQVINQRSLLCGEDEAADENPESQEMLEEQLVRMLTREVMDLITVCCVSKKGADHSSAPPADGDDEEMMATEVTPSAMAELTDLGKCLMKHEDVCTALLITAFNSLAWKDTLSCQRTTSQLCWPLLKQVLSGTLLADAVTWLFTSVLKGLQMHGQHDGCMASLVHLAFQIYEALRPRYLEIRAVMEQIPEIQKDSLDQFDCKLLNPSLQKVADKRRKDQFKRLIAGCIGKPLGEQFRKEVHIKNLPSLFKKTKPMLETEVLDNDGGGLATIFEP

[5] = target: T. brucei lysate proteins (Trypanosoma brucei brucei, UniProt P23799); format: binding; conditions: for fold change - vehicle control: protein PUTATIVE ADENYLATE CYCLASE […] (ESAG8) (CZT00028390.1)
Chain of T. brucei lysate proteins (Trypanosoma brucei brucei, UniProt P23799) (P23799 whole entry): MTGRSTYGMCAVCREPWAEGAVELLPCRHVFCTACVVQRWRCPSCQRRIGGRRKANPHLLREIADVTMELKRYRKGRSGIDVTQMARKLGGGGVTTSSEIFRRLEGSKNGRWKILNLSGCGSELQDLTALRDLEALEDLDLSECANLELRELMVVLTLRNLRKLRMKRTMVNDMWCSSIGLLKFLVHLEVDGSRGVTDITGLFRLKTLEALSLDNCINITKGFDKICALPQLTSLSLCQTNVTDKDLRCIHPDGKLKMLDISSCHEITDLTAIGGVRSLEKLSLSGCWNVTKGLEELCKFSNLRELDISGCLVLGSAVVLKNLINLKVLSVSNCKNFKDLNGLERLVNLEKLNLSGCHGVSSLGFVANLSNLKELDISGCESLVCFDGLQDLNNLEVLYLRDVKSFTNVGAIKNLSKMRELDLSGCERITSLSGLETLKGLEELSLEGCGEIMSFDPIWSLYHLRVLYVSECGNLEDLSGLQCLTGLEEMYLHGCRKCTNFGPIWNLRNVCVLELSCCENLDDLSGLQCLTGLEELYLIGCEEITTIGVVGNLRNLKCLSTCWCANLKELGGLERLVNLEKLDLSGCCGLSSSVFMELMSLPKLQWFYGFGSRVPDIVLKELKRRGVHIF

[6] = target: T. brucei lysate proteins (Trypanosoma brucei brucei, UniProt P04789); format: binding
Chain of T. brucei lysate proteins (Trypanosoma brucei brucei, UniProt P04789) (P04789 whole entry): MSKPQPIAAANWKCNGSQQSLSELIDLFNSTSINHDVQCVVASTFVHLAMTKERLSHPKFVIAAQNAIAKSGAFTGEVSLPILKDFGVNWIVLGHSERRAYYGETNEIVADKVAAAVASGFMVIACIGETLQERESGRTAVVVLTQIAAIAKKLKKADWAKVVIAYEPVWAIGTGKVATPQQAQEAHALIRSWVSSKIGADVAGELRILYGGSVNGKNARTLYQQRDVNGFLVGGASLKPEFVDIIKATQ

[7] = protein CZT00028390.1 PUTATIVE ADENYLATE CYCLASE […] (ESAG8), vehicle control = 1
[8] = protein TB427TMP.02.3210 TRIOS[…], vehicle control = 1
[9] = protein TB427TMP.02.3210 TRIOS[…]

SMILES	fold change [1]	fold changes relative to vehicle control ([2]; HeLa, protein YWHAQ)	fold changes relative to vehicle control ([3]; HeLa, captured protein RNF160)	fold changes relative to vehicle control ([4]; protein XPO5, HeLa)	fold change vs vehicle control [5, 7]	fold change vs vehicle control [6, 8]	fold changes relative to vehicle control [2]	fold changes relative to vehicle control [3]	fold changes relative to vehicle control [4]	fold change vs vehicle control [5]	fold change vs vehicle control [6]	interaction with haloacid dehalogenase-like hydrolase (LmjF.28.1370) ([1]; bead mixture, Leishmania lysates)	fold changes relative to vehicle control ([2]; protein YWHAQ, HeLa)	fold changes relative to vehicle control ([3]; captured protein RNF160, HeLa)	fold changes relative to vehicle control ([4]; HeLa, protein XPO5)	fold change - vehicle control [5]	fold change - vehicle control [6, 9]
Nc1nc2c(c(=O)[nH]1)N(C=O)C(CNc1ccc(C(=O)N[C@@H](CCC(=O)O)C(=O)O)cc1)CN2 (stereo partly shown) [LEU, leucovorin]	1.05	1.08	1.1	0.86	1.17	2.16	–	–	–	–	–	–	–	–	–	–	–
Nc1nc2[nH]cc(CCc3ccc(C(=O)N[C@@H](CCC(=O)O)C(=O)O)cc3)c2c(=O)[nH]1 [PTX, pemetrexed]	0.93	–	–	–	–	–	1.05	1.09	0.92	1.01	0.63	–	–	–	–	–	–
CCCCCCOc1ccc(Cc2cnc(N)nc2N)cc1 [compound 1]	0.13	–	–	–	–	–	–	–	–	–	–	interacted strongly	1.54	1.01	1	1.15	0.88
CCCCCCOc1cccc(Cc2cnc(N)nc2N)c1 [compound 2]	1	–	–	–	–	–	–	–	–	–	–	–	2.29	1.08	1.18	0.97	0.98
Nc1nc2cccc(-c3ccccc3)c2n1Cc1ccc(Cl)c(Cl)c1 [compound 3]	1.07	–	–	–	–	–	–	–	–	–	–	–	0.88	1.13	1.1	0.98	0.75
NCCOCCOCC(=O)Nc1nc2ncc(CNc3ccc(C(=O)NC(CCC(=O)O)C(=O)O)cc3)nc2c(=O)[nH]1 (stereo not shown) [compound 6]	0.89	1.15	1.17	1.02	1.1	1.54	–	–	–	–	–	–	–	–	–	–	–
NCCCNc1ccc(C(=O)NC(CCC(=O)O)C(=O)O)cc1 (stereo not shown) [compound 7]	1.02	0.86	1.17	0.98	0.95	1.05	–	–	–	–	–	–	–	–	–	–	–
